Source: US20240327423A1, “A SERIES OF PYRROLE DERIVATIVES AND THEIR PREPARATION METHOD AND THERAPEUTIC USE” (SHENZHEN SUNGENING BIO-MEDICAL CO., LTD, priority 2020, published 2024)
Converted amounts (≈) assume the structure as drawn. “And” between values parts separate entries of the source, which are not always exact repeats. Equal values may be shown once. Read-outs that look alike come from different tables or passages of the source.

What was measured:
[1] = Pharmacokinetic test in SD rats, single oral administration; assay type: in vivo; conditions: 10 mg/kg, single oral administration 10 mg/kg, test compound mixed with F901318, plasma; for Cmax: read-out: Cmax; for Tmax: read-out: Tmax; for half-life: read-out: T½ (converted)
Description: Pharmacokinetic study is performed on SD rats receiving single oral administration of each test compound mixed with F901318 (10 mg/kg, 3 rats per group). Test compounds and F901318 are dissolved with […]+10% solutol+85% saline, vortexed for 1-2 mins and ultra-sonicated for 5-10 mins to form a colorless clear drug solution. The animals are fasted overnight before oral administration, and resumed feeding 4 hours after administration. After oral administration, pharmacokinetic samples are collected from orbital blood of SD rats at 0.083 h, 0.25 h, 0.5 h, 1 h, 2 h, 4 h, 6 h, 8 h, and 24 h, and three whole blood samples are collected at each time point in a volume of 0.2-0.3 mL. Blood samples are placed on ice immediately after collected, and the plasma is separated by centrifugation within 15 min (centrifugation conditions: 8000 rpm, 1 min, and at room temperature).
The collected plasma is stored at −20° C. prior to analysis. Transfer 20 μL of plasma sample into an 0.5 mL EP tube, add 200 μL of working internal standard solution (blank group is without internal standard, using the same volume of solvent instead), vortex and mix for 3 min centrifuge at 13500 rpm for 10 min, take 100 μL of supernatant and analyze with LC-MS/MS.

[2] = Liver microsomal stability test, mouse; assay type: in vitro ADME; conditions: Mouse liver microsomes; for CLint scaled / half-life: 0.5 mg/mL protein, 37° C., NADPH
[3] = system: Aspergillus fumigatus (ATCC-204305); assay: Measurement of minimum inhibitory concentration (MIC), ATCC 204305; assay type: cell-based; conditions: ATCC204305; Aspergillus fumigatus ATCC 204305, 35° C., 48 hours
Description: New streaks are made with glycerol stock solution of the strains of Aspergillus [NT] MYA-4609/AF 293/CBS 101355) on Sabouraud's dextrose agar (SDA), incubate at 35° C. and a humidity of 40-70% for 72 hours. Other strains are processed as the same as AF293. RPMI1640: one packet of RPMI1640 powder is dissolved in 1 L purified water and mixed well, add 0.165M MOPS, adjust the pH to 7.0, sterilize by filtration with 0.22 um membrane, and store at 4° C. for no more than 3 months. Physiological saline: weigh 9 g of sodium chloride powder and dissolve in 1 L of purified water, and mixed well. […] Dissolve the test compound and stock solution of one control compound with DMSO and obtain solutions at a concentration of 12.8 mg/mL The maximum concentration of each compound is 0.8 mg/mL (e.g., 150 μL of dimethyl sulfoxide+10 uL of 12.8 mg/mL compound/control). […] Repeat the above steps up to column 11 to give 2× serial dilutions. 2 μL of the above 2× serial dilutions are injected into each hole of the corresponding test plate using a multichannel pipette. Drop 5 ml of saline on the Aspergillus fumigatus SDA plate. The spores were carefully wiped off from the surface of the plate with an L-shaped coating rod. Then the suspension is transferred into a sterile tube. After shaking, let the tube stand for 5 to 10 minutes. Count the number of spores in the upper suspension with a hemocytometer and check the purity. Adjust the inoculum concentration to 0.2-2.5×10^4 spores/mL. Inject 198 μL of diluted inoculum into each holes of the corresponding test plate using a multichannel pipette. Incubate at 35° C. for 48 hours. […] To facilitate scoring of the presence or absence of growth on the wall, a magnifying glass is used. The tested 96-well microplates were photographed and the optical density at 530 nm is read with an enzyme marker (Tecan Spark).

[4] = Liver microsomal stability test, human; assay type: in vitro ADME; conditions: Human liver microsomes; for CLint scaled / half-life: 0.5 mg/mL protein, 37° C., NADPH
[5] = SD, rat, plasma, po, read-out: AUC

SMILES	AUC [1, 5]	Cmax ([1]; SD, rat, plasma, po)	Tmax ([1]; SD, rat, plasma, po)	half-life ([1]; SD, rat, plasma, po)	CLint scaled [2]	half-life [2]	Remaining, (T = 60 min) [2]	MIC [3]	CLint scaled [4]	half-life [4]	Remaining, (T = 60 min) [4]	AUC [1]
Cc1cc(-c2ccccc2)c(C(=O)C(=O)Nc2cc(F)c3c(c2)OC[C@H]2CN(c4ncc(F)cn4)CCN32)n1C [Example 5]	16000 ng·h/mL	1930 ng/mL	60 min	257 min	115 mL/min/kg	21.8 min	15.7%	0.016 µg/mL (≈ 0.0294 µM)	48.8 mL/min/kg	25.6 min	20.4%	–
Cc1cc(-c2ccccc2)c(C(=O)C(=O)Nc2ccc3c(c2)C[C@H]2CN(c4ncc(F)cn4)CCN32)n1C [Example 33, (S)-2-(1,5-dimethyl-3-phenyl-1H-pyrrol-2-yl)-N-(2-(5-fluoropyrimidin-2-yl)-1,2,3,4,10,10a-hexahydropyrazino[1,2-a]indol-8-yl)-2-oxoacetamide]	36100 ng·h/mL	3490 ng/mL	60 min	451 min	50.2 mL/min/kg	49.6 min	44.8%	0.016 µg/mL (≈ 0.0313 µM)	25.9 mL/min/kg	48.2 min	43.4%	–
Cc1cc(-c2ccccc2)c(C(=O)C(=O)Nc2ccc(N3CCN(c4ncc(F)cn4)CC3)cc2)n1C [Example F901318, reference compound]	7540 ng·h/mL	–	–	–	98.9 mL/min/kg	25.2 min	18.7%	0.016 µg/mL (≈ 0.0321 µM)	37.8 mL/min/kg	33 min	27.7%	9170.038 ng·h/mL and 7652.703 ng·h/mL and 9641.325 ng·h/mL
